#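 Cultured in 96-well plates, cells were exposed to test compound for 48 hours across five concentrations. TGI marks complete inhibition of growth.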
# Tests used:
# Test in all cases: NCI tumour cell line growth inhibition, 48 h
# 786-0 renal = test system: 786-0 renal
# A498 renal = test system: A498 renal
# A549 NSCLC = test system: A549 NSCLC
# ACHN renal = test system: ACHN renal
# BT-549 breast = test system: BT-549 breast
# CAKI-1 renal = test system: CAKI-1 renal
# CCRF-CEM leukemia = test system: CCRF-CEM leukemia
# COLO 205 colon = test system: COLO 205 colon
# DU-145 prostate = test system: DU-145 prostate
# EKVX NSCLC = test system: EKVX NSCLC
# HCC-2998 colon = test system: HCC-2998 colon
# HCT-116 colon = test system: HCT-116 colon
# HCT-15 colon = test system: HCT-15 colon
# HL-60(TB) leukemia = test system: HL-60(TB) leukemia
# HOP-62 NSCLC = test system: HOP-62 NSCLC
# HOP-92 NSCLC = test system: HOP-92 NSCLC
# HS 578T breast = test system: HS 578T breast
# HT29 colon = test system: HT29 colon
# IGROV1 ovarian = test system: IGROV1 ovarian
# K-562 leukemia = test system: K-562 leukemia
# KM12 colon = test system: KM12 colon
# LOX IMVI melanoma = test system: LOX IMVI melanoma
# M14 melanoma = test system: M14 melanoma
# MALME-3M melanoma = test system: MALME-3M melanoma
# MCF7 breast = test system: MCF7 breast
# MDA-MB-231 breast = test system: MDA-MB-231 breast
# MDA-MB-435 = test system: MDA-MB-435
# MDA-N = test system: MDA-N
# MOLT-4 leukemia = test system: MOLT-4 leukemia
# NCI-H226 lung = test system: NCI-H226 lung
# NCI-H23 lung = test system: NCI-H23 lung
# NCI-H460 lung = test system: NCI-H460 lung
# NCI-H522 lung = test system: NCI-H522 lung
# NCI/ADR-RES ovarian = test system: NCI/ADR-RES ovarian
# OVCAR-3 ovarian = test system: OVCAR-3 ovarian
# OVCAR-4 ovarian = test system: OVCAR-4 ovarian
# OVCAR-5 ovarian = test system: OVCAR-5 ovarian
# OVCAR-8 ovarian = test system: OVCAR-8 ovarian
# PC-3 prostate = test system: PC-3 prostate
# RPMI-8226 leukemia = test system: RPMI-8226 leukemia
# RXF 393 renal = test system: RXF 393 renal
# SF-268 CNS = test system: SF-268 CNS
# SF-295 CNS = test system: SF-295 CNS
# SF-539 CNS = test system: SF-539 CNS
# SK-MEL-2 melanoma = test system: SK-MEL-2 melanoma
# SK-MEL-28 melanoma = test system: SK-MEL-28 melanoma
# SK-MEL-5 melanoma = test system: SK-MEL-5 melanoma
# SK-OV-3 ovarian = test system: SK-OV-3 ovarian
# SN12C renal = test system: SN12C renal
# SNB-19 CNS = test system: SNB-19 CNS
# SNB-75 CNS = test system: SNB-75 CNS
# SR leukemia = test system: SR leukemia
# SW-620 colon = test system: SW-620 colon
# T-47D breast = test system: T-47D breast
# TK-10 renal = test system: TK-10 renal
# U251 CNS = test system: U251 CNS
# UACC-257 melanoma = test system: UACC-257 melanoma
# UACC-62 melanoma = test system: UACC-62 melanoma
# UO-31 renal = test system: UO-31 renal
smiles,measurement,setting,value
COc1cc2c3cc1Oc1c(O)c(OC)cc4c1[C@H](Cc1ccc(cc1)Oc1cc(ccc1O)C[C@H]3N(C)CC2)N(C)CC4,TGI,786-0 renal,21.7 µM
same,TGI,A498 renal,31.5 µM
same,TGI,A549 NSCLC,39.6 µM
same,TGI,ACHN renal,61 µM
same,TGI,BT-549 breast,28.4 µM
same,TGI,CAKI-1 renal,86.3 µM
same,TGI,CCRF-CEM leukemia,42.7 µM
same,TGI,COLO 205 colon,28.5 µM
same,TGI,DU-145 prostate,37.5 µM
same,TGI,EKVX NSCLC,48.1 µM
same,TGI,HCC-2998 colon,22.8 µM
same,TGI,HCT-116 colon,22.4 µM
same,TGI,HCT-15 colon,59.5 µM
same,TGI,HL-60(TB) leukemia,33.9 µM
same,TGI,HOP-62 NSCLC,43.8 µM
same,TGI,HOP-92 NSCLC,39.4 µM
same,TGI,HS 578T breast,64.9 µM
same,TGI,HT29 colon,18.5 µM
same,TGI,IGROV1 ovarian,36.1 µM
same,TGI,K-562 leukemia,17.6 µM
same,TGI,KM12 colon,23.7 µM
same,TGI,LOX IMVI melanoma,17.8 µM
same,TGI,M14 melanoma,5.62 µM
same,TGI,MALME-3M melanoma,36.8 µM
same,TGI,MCF7 breast,44.4 µM
same,TGI,MDA-MB-231 breast,22.8 µM
same,TGI,MDA-MB-435,27.1 µM
same,TGI,MDA-N,24.7 µM
same,TGI,MOLT-4 leukemia,> 43.8 µM
same,TGI,NCI-H226 lung,58.8 µM
same,TGI,NCI-H23 lung,51.8 µM
same,TGI,NCI-H460 lung,26.8 µM
same,TGI,NCI-H522 lung,27 µM
same,TGI,NCI/ADR-RES ovarian,78.4 µM
same,TGI,OVCAR-3 ovarian,28.5 µM
same,TGI,OVCAR-4 ovarian,48 µM
same,TGI,OVCAR-5 ovarian,58.6 µM
same,TGI,OVCAR-8 ovarian,37.3 µM
same,TGI,PC-3 prostate,27.1 µM
same,TGI,RPMI-8226 leukemia,20 µM
same,TGI,RXF 393 renal,13.9 µM
same,TGI,SF-268 CNS,47.3 µM
same,TGI,SF-295 CNS,31.3 µM
same,TGI,SF-539 CNS,10.9 µM
same,TGI,SK-MEL-2 melanoma,25.6 µM
same,TGI,SK-MEL-28 melanoma,39.2 µM
same,TGI,SK-MEL-5 melanoma,16.6 µM
same,TGI,SK-OV-3 ovarian,79.3 µM
same,TGI,SN12C renal,34.6 µM
same,TGI,SNB-19 CNS,55.1 µM
same,TGI,SNB-75 CNS,43 µM
same,TGI,SR leukemia,9.15 µM
same,TGI,SW-620 colon,57.3 µM
same,TGI,T-47D breast,46.1 µM
same,TGI,TK-10 renal,48.6 µM
same,TGI,U251 CNS,28 µM
same,TGI,UACC-257 melanoma,33.9 µM
same,TGI,UACC-62 melanoma,33.4 µM
same,TGI,UO-31 renal,44.8 µM
COC(=O)c1cc(C)ccc1CC(Cc1cccc(C)c1)C(=O)OC (configuration not stated),TGI,786-0 renal,> 100 µM
same,TGI,A498 renal,> 100 µM
same,TGI,A549 NSCLC,> 100 µM
same,TGI,ACHN renal,> 100 µM
same,TGI,BT-549 breast,> 100 µM
same,TGI,CAKI-1 renal,> 100 µM
same,TGI,CCRF-CEM leukemia,> 100 µM
same,TGI,COLO 205 colon,> 100 µM
same,TGI,DU-145 prostate,> 100 µM
same,TGI,EKVX NSCLC,> 100 µM
same,TGI,HCC-2998 colon,> 100 µM
same,TGI,HCT-116 colon,> 100 µM
same,TGI,HCT-15 colon,> 100 µM
same,TGI,HL-60(TB) leukemia,> 100 µM
same,TGI,HOP-62 NSCLC,> 100 µM
same,TGI,HOP-92 NSCLC,> 100 µM
same,TGI,HS 578T breast,> 100 µM
same,TGI,HT29 colon,> 100 µM
same,TGI,IGROV1 ovarian,> 100 µM
same,TGI,K-562 leukemia,> 100 µM
same,TGI,KM12 colon,> 100 µM
same,TGI,LOX IMVI melanoma,> 100 µM
same,TGI,M14 melanoma,> 100 µM
same,TGI,MALME-3M melanoma,> 100 µM
same,TGI,MCF7 breast,> 100 µM
same,TGI,MDA-MB-231 breast,> 100 µM
same,TGI,MDA-MB-435,> 100 µM
same,TGI,MDA-N,> 100 µM
same,TGI,MOLT-4 leukemia,> 100 µM
same,TGI,NCI-H226 lung,> 100 µM
same,TGI,NCI-H23 lung,> 100 µM
same,TGI,NCI-H460 lung,> 100 µM
same,TGI,NCI-H522 lung,> 100 µM
same,TGI,NCI/ADR-RES ovarian,> 100 µM
same,TGI,OVCAR-3 ovarian,> 100 µM
same,TGI,OVCAR-4 ovarian,> 100 µM
same,TGI,OVCAR-5 ovarian,> 100 µM
same,TGI,OVCAR-8 ovarian,> 100 µM
same,TGI,PC-3 prostate,> 100 µM
same,TGI,RPMI-8226 leukemia,> 100 µM
same,TGI,RXF 393 renal,73.6 µM
same,TGI,SF-268 CNS,53.9 µM
same,TGI,SF-295 CNS,> 100 µM
same,TGI,SF-539 CNS,> 100 µM
same,TGI,SK-MEL-2 melanoma,> 100 µM
same,TGI,SK-MEL-28 melanoma,> 100 µM
same,TGI,SK-MEL-5 melanoma,> 100 µM
same,TGI,SK-OV-3 ovarian,27.1 µM
same,TGI,SN12C renal,> 100 µM
same,TGI,SNB-19 CNS,> 100 µM
same,TGI,SNB-75 CNS,> 100 µM
same,TGI,SR leukemia,> 100 µM
same,TGI,SW-620 colon,> 100 µM
same,TGI,T-47D breast,> 100 µM
same,TGI,TK-10 renal,> 100 µM
same,TGI,U251 CNS,> 100 µM
same,TGI,UACC-257 melanoma,> 100 µM
same,TGI,UO-31 renal,> 100 µM
